Tests used:
HCT-116 = assay: In vitro cytotoxicity against 116 human colon tumor cell line (HCT116); assay type: functional, cell-based
Mus musculus [1] = assay: Compound was tested in vivo in mice against Madison 109 lung carcinoma cell line (M109) in a pretreated group over a control group at 32 mg/kg/inj; assay type: functional
Mus musculus [2] = assay: Compound was tested in vivo in mice against Madison 109 lung carcinoma cell line (M109) in a pretreated group over a control group at 16 mg/kg/inj; assay type: functional
Mus musculus [3] = assay: Compound was tested in vivo in mice against Madison 109 lung carcinoma cell line (M109) in a pretreated group over a control group at 64 mg/kg/inj; assay type: functional
Mus musculus [4] = assay: Compound was tested in vivo in mice against Madison 109 lung carcinoma cell line (M109) in a pretreated group over a control group at 128 mg/kg/inj; assay type: functional

Compound	IC50 (HCT-116) [µM]	T/C (Mus musculus [1]) [%]	T/C (Mus musculus [2]) [%]	T/C (Mus musculus [3]) [%]	T/C (Mus musculus [4]) [%]
CC(C)(C)[Si](C)(C)O[C@@]12C#C/C=C\C#CCC(=CCC1)C2=O	> 2	–	–	–	–
CC(C)(C)[Si](C)(C)O[C@@]12C#C/C=C\C#C[C@@H](F)C(=CCC1)C2=O	0.024	112	–	–	–
CC(C)(C)[Si](C)(C)O[C@@]12C#C/C=C\C#C[C@@H](O)C(=CCC1)C2=O	0.1	–	144	–	–
CC(C)(C)[Si](C)(C)O[C@@]12C#C/C=C\C#C[C@@H](OC(=O)COc3ccccc3)C(=CCC1)C2=O	0.19	–	–	143	–
CC(C)(C)[Si](C)(C)O[C@@]12C#C/C=C\C#C[C@H](O)C(=CCC1)C2=O	> 2	–	–	–	115

Reference: ChEMBL document CHEMBL1152093, “The effect of propargylic substitution on the activation and aromatization of enediynes” (Bioorg Med Chem Lett, 1994)
